Assay results published in patent US20110207694A1, “MAMMALIAN HYPOTHALAMIC NUTRIENT MODULATION OF GLUCOSE METABOLISM” (priority 2005, published 2011).
Entries after “also recorded” stand apart in the source; their conditions may differ.

Columns and labels:
[1] = system: Stearoyl-CoA Desaturase 1 (SCD1); assay: Liver SCD1 activity, SCD1 mRNA and LCFA-CoA measurements; assay type: in vivo, rat
Procedure: (§1) Treatment with SCD1 ASO. Five and two days before the lipoprotein secretion studies, rats received a single intra-peritoneal injection of either SCD1 or scrambled (SCR) ASO (100 mg/kg of body weight). […] In a separate set of studies, rats received intra-portal injection of either SCD1 or SCR ASO (40 mg/kg of body weight) (Gutierrez-Juarez et al., 2006) three days before the lipoprotein secretion studies.
Liver LCFA-CoA measurements. The liver was sampled and the LCFA-CoAs were extracted from the liver and measured by high-performance liquid chromatography (HPLC) as previously described (Lam et al., 2005c).
Stearoyl-CoA Desaturase 1 (SCD1) activity. CD1 activity assays were performed essentially as described (Cohen et al., 2002) using 1-[^14C]-stearoyl-CoA as a substrate. At the end of the reaction incubation long-chain acyl CoAs (LC Acyl-CoAs) were extracted and fractionated by reverse-phase HPLC as previously reported (Lam et al., 2005c). Chromatographically resolved stearoyl CoA (C18:0) and oleyl-CoA (C18:1) peaks were collected and counted in a β-scintillation counter. Protein was assayed by the bicinchoninic acid (BCA) method using a commercially available kit (Pierce Biotechnology, Rockford, Ill.) according to the manufacturer's instructions.
Gene expression. Stearoyl-CoA Desaturasel (SCD1) mRNA was measured by quantitative real-time PCR. Briefly, total RNA was extracted from either liver or fat tissue using the Trizol reagent (Invitrogen, Carlsbad, Calif.) according to the manufacturer instructions. cDNA was then synthesized from 2 μg of total RNA using the Superscript® III First-Strand kit TM? (Invitrogen, Carlsbad, Calif.). Samples of RNA in which the reverse transcriptase was omitted (no RT controls) were also included. The cDNA and no RT controls were diluted 1:20 with PCR grade water and 2 μl from each sample was used for PCR in a total volume of 20 μl. The FastStart DNA Master SYBR Green I kit (Roche Applied Science, Indianapolis, Ind.) and a LightCycler® 2 instrument (Roche Applied Science, Indianapolis, Ind.) were used in all experiments. Either 18S mRNA expression was routinely measured for normalization purposes. The primer sequences used were as follows: 5′-[…]-3′ and 5′-[…]-3′ for Scd1; and 5′-[…]-3′ and 5′-[…]-3′ for ribosomal 18S. The mRNA copy number was calculated from standard curves obtained using cloned target templates (plasmid DNA) of known copy number for each gene of interest.

[2] = system: conscious rats; assay: ICV glucose or lactate infusion with pancreatic basal insulin clamp: plasma glucose and liver glucose production; assay type: in vivo, rat; settings: for effect of ICV co-infused LDH inhibitor or KATP blocker on the effects of ICV glucose or lactate on plasma glucose and GP: ICV co-infusion
Source text: We hypothesize that the hypothalamic sensing of glucose-derived pyruvate is a novel regulator of endogenous glucose production (GP). […] We propose that an increase in neuronal pyruvate levels is a hypothalamic signal of nutrient availability.
Long chain fatty acids in the brain decrease glucose production (GP) by the liver via activation of hypothalamus ATP-sensitive (KATP) channels. Here we tested whether (A) direct administration of glucose in the third cerebral ventricle can alter glucose production by the liver, and (B) whether this effect requires its metabolism in the TCA cycle.

[3] = system: mediobasal hypothalamus; assay: Intrahypothalamic (IH) infusion of glucose or DCA with pancreatic basal insulin clamp; assay type: in vivo, rat; settings: IH, with glucose
Source text: FIG. 3 is a diagram of experimental protocols (Panel (a)) and graphs of results of those experiments utilizing intrahypothalamic (IH) infusions of glucose.
FIG. 4 is a schematic and graphs of experimental results showing the effect of dichloroacetate (DCA), an inhibitor of pyruvate dehydrogenase kinase, having the effect of activating pyruvate dehydrogenase (PDH). The schematic of Panel (a) illustrates the PDH activation effect of DCA in the context of glucose metabolism, the TCA cycle, and nervous system cells.
We have localized the effect of glucose on liver glucose production to the mediobasal hypothalamus. This was accomplished using bilateral intraparenchymal (rather than ICY) delivery of both glucose and the KATP blocker GLI.

[4] = system: conscious rats; assay: Circulating lactate infusion with central LDH inhibitor or KATP blocker: glucose kinetics during pancreatic clamps
[5] = system: male Sprague-Dawley rats; assay: ICV infusion: plasma triglycerides and metabolites under basal and pancreatic clamp conditions; assay type: in vivo, rat
Source text: Animal preparation. We studied 10-week-old male Sprague-Dawley rats. Rats underwent stereotaxic surgery to indwell single catheters in the third cerebral ventricle {intracerebroventricular (ICV)(Obici et al., 2001) or bilateral catheters into the mediobasal hypothalamus (Lam et al., 2005c). One week later, we placed indwelling catheters in the internal jugular vein and carotid artery for sampling and infusion during the in vivo experiments (Obici et al., 2001). Recovery from surgery was monitored by measuring daily food intake and weight gain for 4-5 days after surgery.
(§2) Infusion protocols. The in vivo infusion experiments lasted a total of 360 min, and the experiments were carried out in rats that had their food removed ˜5 h before the experiments. Thus, at the time of the experiment, the rats are in post-absorptive state since their stomach should be completely emptied by 5 h fasting. […] This ICV glucose protocol physiologically elevate hypothalamic glucose concentration by ˜70% as previously described (Lam et al., 2005b) and is similar to that induced by a doubling of the circulating glucose levels (Lam et al., 2005b). During the ICV infusions, we monitored the plasma metabolite levels under pre-infused (0 min), basal (180-240 min) and pancreatic clamp (300-360 min) conditions. […] A basal insulin-pancreatic clamp was performed in the final 2 h (240-360 min) of the study as previously described (Lam et al., 2005b). In brief, a continuous infusion of insulin (1 mU/kg.min) and somatostatin (3 μg/kg.min) was administered, and a variable infusion of a 25% glucose solution was started and periodically adjusted to clamp and maintain the plasma glucose concentration at ˜8 mM. […] To examine the time-dependent effects of ICY glucose on plasma triglycerides, ICY (5 μl/h) 2 mM D-glucose or mannitol was administrated for 210 min and plasma triglyceride levels were monitored at 0, 20, 60, 120, 180, 210 min. […] Plasma triglycerides were monitored under basal, pancreatic clamp and tyloxapol-treated conditions. At the end of the infusion experiments, rats were anesthetized and tissue samples were freeze-clamped in situ with aluminum tongs pre-cooled in liquid nitrogen. All tissue samples were stored at −80° C. for subsequent analysis.
Biochemical analyses. Plasma glucose concentrations were measured by the glucose oxidase method (Glucose Analyzer II, Beckman Instruments, Inc., Fullerton, Calif.). […] FFA concentrations were determined by an enzyme assay in accordance with the manufacturer's specifications (Waco Pure Chemical Industries. Osaka. Japan). Plasma insulin concentrations (with rat and porcine insulin standards) were measured by radioimmunoassay (RIA). Plasma adiponectin concentrations were measured by RIA (Linco Inc., Austin, Tex., USA). Liver triglycerides were measured as described (Muse et al., 2004).
Calculations. Statistical analysis was done by unpaired Student's t test or analysis of variance as appropriate. Data are presented as means±SEM. All values were collapsed into a single value for each animal prior to the calculation of mean. The time period 180-240 min was averaged for the basal and the time period 300-360 min was averaged for the clamp conditions.

[6] = system: hepatic VLDL secretion; assay: Lipoprotein (VLDL) secretion studies with tyloxapol; NMR particle size; assay type: in vivo, rat
Procedure: Lipoproteins secretion and particles concentration and size measurements. Tyloxapol (600 mg/kg; ˜1 min) was intravenously injected to inhibit endogenous lipoprotein lipase. This high dose of tyloxapol ensured complete inhibition of triglyceride clearance during VLDL secretion studies. Plasma samples were taken every 30 min for triglycerides analysis and for lipoprotein profiling. Plasma VLDL particles concentration and size were determined by nuclear magnetic resonance spectroscopy (lipoprofile-II test) at Liposcience as previously described (Otvos et al., 1991; 1992). This NMR lipoprofile-II test is based on the assumption that each plasma lipoprotein particle of a particular size gives its own characteristic lipid NMR signal. The intensity of the signal is also in proportion to the concentration of the particle. The diameter range for large, medium and small VLDL is >60 nm, 35-60 nm, and 27-35 nm, respectively.
Selective hepatic branch vagotomy. The surgeries were performed as described (Lam et al., 2005c).
as §1
Portal oleate infusion. Chronic portal catheter was implanted and 7 days were allowed for rat recovery. Oleic acid (45 mM; dissolved in 45% HBP) was infused at a rate of 40 μl/h for 2.5 h (1 h before the 90 min lipoprotein secretion studies). This dose enabled the reconstitution of hepatic oleyl-CoA levels back to normal during portal SCD1 ASO (FIG. 11c) or ICV glucose studies (FIG. 11d).

[7] = system: conscious rats; assay: Intravenous lactate infusion with or without MBH oxamate: plasma TG and hepatic TG-VLDL production; assay type: in vivo, rat; settings: oxamate within the mediobasal hypothalamus prior to the i.v. lactate infusion
Procedure: as §2
VLDL are decreased in the hours following an acute bout of exercise. […] To investigate the mechanism by which lactate lowers plasma TG levels, the rate of production of hepatic TG-enriched VLDL was measured.

COc1ccc(Cl)cc1C(=O)NCCc1ccc(S(=O)(=O)NC(=O)NC2CCCCC2)cc1 [glibenclamide, reference compound]
effect of ICV co-infused inhibitor on the decrease of hepatic SCD1 mRNA and activity by ICV glucose ([1]; ICV co-infusion with glucose): abolished
effect of ICV co-infused LDH inhibitor or KATP blocker on the effects of ICV glucose or lactate on plasma glucose and GP [2]: inhibited
effect of ICV co-infused LDH inhibitor or KATP blocker on the effects of ICV glucose or lactate on plasma glucose and GP ([2]; listed as GLI): inhibited
effect of ICV co-infused LDH inhibitor or KATP blocker on the effects of ICV glucose or lactate on plasma glucose and GP ([2]; listed as sulfonylurea): completely abolished the effects of ICV glucose and lactate on plasma glucose and GP
effect of KATP blocker on the effects of IH glucose [3]: prevented
glucose infusion rate to maintain euglycemia ([4]; ICV inhibitor infused with IV lactate): decreased glucose infusion rate
glucose production ([4]; central inhibitor infused with circulating lactate infusion): increase in glucose production
effect of ICV co-infused inhibitor on the plasma triglyceride-lowering effects of ICV glucose or lactate ([5]; ICV co-infusion (oxamate 50 mM, glibenclamide 100 μM)): negated the effects of both ICV glucose and lactate on plasma triglycerides; also recorded: abolishes the plasma triglyceride-lowering effects of glucose; also recorded: abolished the plasma triglyceride-lowering effects of lactate
plasma triglyceride levels, inhibitor per se ([5]; ICV inhibitor alone): did not per se alter the levels of plasma triglycerides
effect of central co-infusion of inhibitor on suppression of VLDL-triglyceride secretion by ICV glucose ([6]; central co-infusion with glucose): abolished

CCCCCCCC/C=C\CCCCCCCC(=O)O [oleic acid]
hepatic oleyl-CoA ([1]; portal infusion of oleic acid during ICV glucose or SCD1 deficiency): restores hepatic oleyl-CoA to control levels
effect of portal oleic acid infusion on VLDL secretion ([6]; portal infusion during ICV glucose or SCD1 ASO): negates the effects of both central glucose and SCD1 deficiency on VLDL secretion; also recorded: sufficient to negate the effect of SCD1 deficiency on VLDL secretion

NC(=O)C(=O)O [oxamate, reference compound]
GP (glucose production) ([2]; ICV oxamate (50 mM) with ICV glucose): 11.9 ± 1.0 mg/kg/min
GP (glucose production) ([2]; ICV oxamate with ICV lactate): 11.3 ± 0.6 mg/kg/min
plasma glucose ([2]; ICV oxamate with ICV lactate): 144 ± 1 mg/dL
hepatic TG-enriched VLDL production [7]: 0.056 ± 0.002 mM/min
plasma TG levels [7]: 0.44 ± 0.12 mM
